# Article PMC8879702, “Discovery of Small Molecule Activators of Chemokine Receptor CXCR4 That Improve Diabetic Wound Healing” (International Journal of Molecular Sciences, 2022)
# Assays:
# [1] = biological target: CXCR4 receptor (Homo sapiens, UniProt P61073); assay: cAMP signaling assay, forskolin-induced, PathHunter CHO-K1 CXCR4 cells; type: cell-based; details: CHO-K1 CXCR4 overexpressed cells
# Description: The CXCR4 receptor is a G-protein coupled receptor (GPCR) coupled to the Gi class, whose primary role is inhibition of adenylate cyclase. We tested the ability of UCUF-728 to induce a Gi-mediated cAMP-inhibitory cellular response. […] (Figure 2B).
# Forskolin at final concentration of 0.5 mM was added to all wells using the TECAN dispenser. […] of PathHunter CHO-K1 CXCR4 cells (DiscoverX, Fremont, CA, USA) were added to compounds at 3000 cells/well, centrifuged at 1000 rpm for 30 s and incubated for 30 min at room temperature. DMSO (Sigma Aldrich, St. Louis, MO, USA) was normalized to 0.5%. […] of 4X Eu-cAMP tracer working solution were added to all wells, followed by addition of 5 μL of 4X Ulight-anti-cAMP working solution to all wells. Plates were centrifuged at 1000 rpm for 1 min and incubated for 1 h at room temperature, then read using CLARIOstar Plus (BMG LABTECH Inc., Cary, NC, USA) Lance CAMP protocol.
# [2] = tested on: miR-29a; assay: miR-29a expression in human diabetic fibroblasts (real time qPCR); type: cell-based; details: 24 h
# Description: An additional secondary screen was performed to further validate the activity of UCUF-728 as a selective CXCR4 receptor modulator. Human diabetic and non-diabetic fibroblasts were cultured with increasing concentrations of the compound. The cells were incubated for 24 h and then total cellular RNA was isolated to examine the ability of the compound to correct the abnormal expression of miR-15b, and miR-29a. We have shown that human diabetic skin has an increased miR-15b expression at the baseline compared to non-diabetic skin [7].
# CEM-CCRF cells (ATCC CCL-119) were cultured in growth media consisting of RPMI 1640 (Corning; Corning NY, USA) supplemented with 10% Fetal Bovine Serum (Corning; Corning, NY, USA), and 100 IU penicillin, […] streptomycin sulfate (Corning; Corning, NY, USA). Cells were maintained in suspension and subcultured twice weekly to maintain cell densities between 0.8 × 10^6 cells/mL and 2.5 × 10^6 cells/mL to maintain exponential growth phase. […]
# Total RNA was extracted with TRIzol reagent (Invitrogen, Carlsbad, CA, USA) according to the manufacturer’s established protocol. […] Quantitative PCR was performed on a BIO-RAD CFX96 according to the manufacturer’s instructions. Quantitative values of genes of interest are normalized based on U6. […]
# [3] = tested on: diabetic wounds in Db mice; assay: full-thickness excisional 8 mm wound healing in diabetic Db mice; type: in vivo
# Description: We examined the ability of our lead compound to improve diabetic wound healing in vivo. Full-thickness excisional 8 mm wounds were created in Db mice and were immediately treated with 10 µM UCUF-728 or PBS control. We monitored wound healing over the course of 22 days. Initial wound size was calculated immediately after wounding, and wound closure was assessed over time as the percentage of initial wound area. Figure 4A depicts the wound healing effect of UCUF-728 application on the excision wound model for sequential days following injury. […] The effect of UCUF-728 treatment on angiogenesis was assessed using immunohistochemistry for the endothelial marker CD31. Representative photos of immunoperoxidase staining for CD31 at 7 days in diabetic wounds treated with PBS or UCUF-728 are shown in Figure 4C.
# All animal experiments were approved by the Institutional Animal Care and Use Committee at the University of Colorado Denver—Anschutz Medical Campus, and experimental protocols followed the guidelines described in the NIH Guide for the Care and Use of Laboratory Animals. In these experiments, we used 10-week-old, female, genetically diabetic C57BKS.Cg-m/Leprdb/J (Db) mice and heterozygous, non-diabetic (non-Db), age-matched female controls from the Jackson Laboratory (Bar Harbor, ME, USA). Mice were anesthetized with inhaled isoflurane. Each mouse was shaved and depilated before wounding. The dorsal skin was swabbed with alcohol and Betadine (Purdue Pharma, Stamford, CT, USA). Each mouse received a single, full-thickness dorsal wound (including panniculus carnosum) with an 8-mm punch biopsy (Miltex Inc., York, PA, USA). After wounding, a Hamilton syringe was used to deliver 50 μL of either 10 uM CAG1 or PBS, as a control. Ten […] were injected intradermally at 12, 3, 6 and 9 o’clock and at the wound base. All wounds were dressed with Tegaderm (3M, St. Paul, MN, USA), which was subsequently removed on postoperative day 2. Postoperatively, the mice received a subcutaneous injection of an analgesic, Banamine (Schering-Plough Animal Health Corp., Union, NJ, USA). A full-thickness skin sample, centered on the wound, was harvested 3 and 7 days after surgery (n = 5 per timepoint).
# Chain of CXCR4 receptor (P61073 whole entry): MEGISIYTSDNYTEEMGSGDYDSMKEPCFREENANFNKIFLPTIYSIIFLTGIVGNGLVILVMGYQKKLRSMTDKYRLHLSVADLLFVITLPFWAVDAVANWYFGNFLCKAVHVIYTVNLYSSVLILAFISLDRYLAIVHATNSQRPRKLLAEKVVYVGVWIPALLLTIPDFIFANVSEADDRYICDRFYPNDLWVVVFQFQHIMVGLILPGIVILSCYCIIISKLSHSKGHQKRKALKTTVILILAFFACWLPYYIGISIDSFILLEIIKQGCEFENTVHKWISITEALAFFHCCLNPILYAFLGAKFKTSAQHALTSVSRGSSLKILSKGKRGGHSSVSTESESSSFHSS
compound,measurement,setting,value
COc1ccc(OC)c(NS(=O)(=O)c2ccc(-c3cnc(C4CC4)o3)cc2)c1 [Compound 19],inhibition of forskolin-induced adenylate cyclase (cAMP signaling),[1],did not inhibit forskolin-induced adenylate cyclase
same,miR-29a expression,[2],significant decrease in the miR-29a expression level
same,time of full closure,"[3]; Db mice, 8 mm wound, 10 µM intradermal at wounding, PBS 22 days",14 days
same,wound surface area,"[3]; Db wounds, post-injury day 6, vs PBS",decrease in the wound surface area
same,reduction of wound closure time,"[3]; diabetic mice, vs PBS",36%
same,number of vessels (CD31 staining),"[3]; diabetic wounds, 7 days, vs PBS",significant increase in the number of vessels
